Values of other authors in patent US20030158158A1, “Oct preparations” (priority 2000, published 2003).

Key:
[1] = not given; remark: listed apart in the source
[2] = not given; remark: listed apart in the source

in vivo calcium elevating effect [1]: low | decomposition in aqueous solutions [2]: rapidly decompose
SMILES: C=C1/C(=C\C=C2/CCC[C@]3(C)[C@@H]([C@H](C)OCCC(C)(C)O)CC[C@@H]23)C[C@@H](O)C[C@@H]1O [OCT, 1α,25-dihydroxy-22-oxavitamin D3]
in vitro differentiation-inducing activity: strong
